Test results from patent US20220056419A1, “IN VITRO MODEL OF LIVER STEATOSIS AND FIBROSING NON-ALCOHOLIC STEATOHEPATITIS” (GENFIT, priority 2018, published 2022).
“Also recorded” adds a separate entry of the source.

Key:
3D Huh7 spheroids = assay: Steatosis model: AdipoRed lipid quantification in 3D Huh7 spheroids induced with first culture medium; assay type: cell-based, human; conditions: 3D liver microtissue steatosis model, 6 days of treatment with test compound
Description: The Huh 7 human hepatocellular carcinoma cell line was seeded in William's E medium (Gibco) with 10% FBS (Gibco) at a density of 3000 cells/well in 384 well plate ULA (Corning). After a few days, spheroids are formed and cells are grown in serum-free culture medium.
William's E medium was supplemented with FFAs (oleate+palmitate, 400 μM total FFA concentration) fructose 15 mM (Sigma) and soluble cholesterol […] (Sigma). Huh7 spheroids were treated for 3 days with this medium with or without a test compound and the treatment was renewed once with or without a test compound.
Steatosis was then measured after 6 days of treatment with or without the test compound.
Lipid Staining and Quantification Intracellular lipid accumulation was quantified using the AdipoRed™ Adipogenesis Assay Reagent (Lonza). Cells were visualized under epifluorescence microscope and then subjected to fluorescence assay quantification at λexc: 485 nm and λem: 572 nm, using plate reader (TECAN).

[1] = test system: 3D human liver microtissues; assay: Fibrosing NASH model: COL1A1 (pro-collagen I) ELISA in medium 1+medium 2-treated 3D human liver microtissues; assay type: cell-based; conditions: single agent, medium 1+medium 2-treated 3D liver microtissues, FIG. 9A
Excerpt: Cryopreserved primary human hepatocytes (IPHH_11) and cryopreserved primary human non parenchymal cells (NPCs containing endothelial and Kupffer cells) (IPHN_11) were obtained from BioIVT. The cryopreserved human primary hepatic stellate cells (hHSC) were obtained from Innoprot. 3D human liver microtissues were produced with the IPHH_11, the IPHN_11 and the hHSC in a 96-well hanging-drop culture platform (Gravity PLUS™, InSphero AG). After microtissues formation, they were transferred into a microtissue-specific 96-well culture and assay platform (Gravity TRAP™, InSphero AG). Further maintenance and compound treatments were performed in Gravity TRAP™ plates. After tissue formation, the 3D microtissues were maintained in William's E medium (Gibco) supplemented with Insulin (Sigma), Transferrin (Sigma), Selenium (Sigma), Glutamine (Gibco), Dexamethasone (Sigma), HEPES (Sigma), Gentamicin (Gibco) and Amphotericin B (Sigma) at 37° C. in a humidified 5% CO2 cell culture incubator for 4 days. Half of the culture medium was replenished every 3 days.
Hepatic microtissues were treated once with a couple of carbohydrates (final concentration ranging from 1 to 100 mM), a couple of free fatty acids either saturated or unsaturated with a final concentration ranging from 100μM to 1 mM and a source of cholesterol with a concentration ranging from 1 μg/mL to 1 mg/mL (medium 1). After 2 to 5 days, microtissues were treated with a couple of carbohydrates (final concentration ranging from 1 to 100 mM), a couple of free fatty acids either saturated or unsaturated with a final concentration ranging from 100 μM to 1 mM and a source of cholesterol with a concentration ranging from 1 μg/mL to 250 μg/mL, a member of the growth factor superfamily member, a member of the TNFSF with a concentration ranging from 1 ng/mL to 1 μg/mL and a sphingolipid with a concentration ranging from 1 nM to 500 nM (medium 2). This treatment lasts from 2 to 5 days.
The level of Collal, IL-8 and MCP-1 was measured using a Sandwich ELISA, according to manufacturer's instructions provided with “Elisa Pro-Collagen I α1/COLIA1”, (DuoSet ELISA, R&D, catalog N°: DY6220-05), Elisa CXCL8/IL-8 (DuoSet ELISA, R&D, catalog N°: DY208n) and Elisa CCL2/MCP-1 (DuoSet ELISA, R&D, catalog N°: DY279) kits, respectively.
For these experiments, a checkerboard matrix was generated. ELA and component (ii) stocks were serially diluted in DMSO in 2-points series in a row (ELA) and a 3-points series in a column (component (ii)) of a 96-well plate. Subsequently, the 2×3 combination matrix was generated by 1:1 mixing of all single agent concentrations.

| Compound | antisteatotic activity (lipid content, AdipoRed signal) (3D Huh7 spheroids) | inhibition of COL1A1 secretion (collagen release) ([1]; high dose 3 μM) | inhibition of COL1A1 secretion (collagen release) ([1]; high dose 3 μM, listed as ELA) | inhibition of COL1A1 secretion (collagen release) ([1]; high dose 1 μM) |
| --- | --- | --- | --- | --- |
| O=C(c1c2ccccc2cc2ccccc12)N1CCC(N2CCC[C@@H](C(=O)N3CCOCC3)C2)CC1 [CP-640186] | antisteatotic activity | the release of collagen was affected; also recorded: inhibition of COL1A1 secretion | – | – |
| CSc1ccc(C(=O)/C=C/c2cc(C)c(OC(C)(C)C(=O)O)c(C)c2)cc1 [Elafibranor] | – | inhibition of COL1A1 secretion | the release of collagen was affected | – |
| COc1ccccc1[C@H](Cn1c(=O)n(C(C)(C)C(=O)O)c(=O)c2c(C)c(-c3ncco3)sc21)OC1CCOCC1 [GS-0976] | antisteatotic activity | – | – | the release of collagen was affected; also recorded: inhibition of COL1A1 secretion |
| COc1cc(C(=O)N2CCC3(CC2)CC(=O)c2cc(-c4cncc(C(=O)O)c4)ccc2O3)cc2c1c(C)cn2C1CC1 [MK-4074] | antisteatotic activity | – | – | – |
